Measurements published in ChEMBL document CHEMBL5143708, “New antimalarials identified by a cell-based phenotypic approach: Structure-activity relationships of 2,3,4,9-tetrahydro-1H-β-carboline derivatives possessing a 2-((coumarin-5-yl)oxy)alkanoyl moiety” (Bioorg Med Chem, 2022).
Calls of active or inactive are those of the source. The rule behind the calls is not given here.

How the values were obtained:
Plasmodium falciparum [1] = assay: Antiplasmodial activity against Plasmodium falciparum 3D7 infected in human RBC assessed as reduction in parasite growth after 72 hrs by LDH assay; format: functional, organism-based; conditions: 3D7, Erythrocyte
[2] = Cytotoxicity against human HL-60 cells assessed as reduction in cell viability after 48 hrs by Cell Count Reagent SF based assay; format: toxicity
[3] = Tmax in ICR mouse at 40 mg/kg, ip; format: ADME, organism-based; conditions: in vivo
Plasmodium falciparum [4] = assay: Antiplasmodial activity against chloroquine-resistant Plasmodium falciparum Dd2 infected in human RBC assessed as reduction in parasite growth after 72 hrs by LDH assay; format: functional, organism-based; conditions: Dd2, Erythrocyte
Plasmodium falciparum [5] = assay: Antiplasmodial activity against chloroquine-resistant Plasmodium falciparum K1 infected in human RBC assessed as reduction in parasite growth after 72 hrs by LDH assay; format: functional, organism-based; conditions: K1, Erythrocyte
Plasmodium berghei [6] = assay: Antimalarial activity against Plasmodium berghei ANKA infected in ICR mouse assessed as reduction in parasitemia level at 40 to 200 mg/kg, ip administered for 4 to 7 days after post-infection by Giemsa staining based microscopic analysis; format: functional, organism-based; conditions: dose 40-200 mg/kg, time 4-7 day
Plasmodium berghei [7] = assay: Antimalarial activity against Plasmodium berghei ANKA infected in ICR mouse assessed as increase in body weight at 40 mg/kg, ip administered for 4 to 7 days after post-infection by Giemsa staining based microscopic analysis; format: functional, organism-based; conditions: time 4-7 day
[8] = Toxicity in ICR mouse infected with Plasmodium berghei ANKA assessed as decrease in body weight at 200 mg/kg, ip administered for 4 to 7 days after post-infection by Giemsa staining based microscopic analysis; format: organism-based; conditions: in vivo, time 4-7 day
Plasmodium berghei [9] = assay: Antimalarial activity against Plasmodium berghei ANKA infected in ICR mouse assessed as increase in body weight at 200 mg/kg, ip administered for 4 to 7 days after post-infection and measured on day 11 post-infection by Giemsa staining based microscopic analysis; format: functional, organism-based; conditions: time 8.0 day
Plasmodium berghei [10] = assay: Antimalarial activity against Plasmodium berghei ANKA infected in ICR mouse assessed as increase in survival at 40 mg/kg, ip administered for 4 to 7 days after post-infection and measured on day 11 post-infection by Giemsa staining based microscopic analysis; format: functional, organism-based; conditions: time 8.0 day
[11] = Toxicity in ICR mouse infected with Plasmodium berghei ANKA assessed as decrease in body weight at 200 mg/kg, ip administered for 4 to 7 days after post-infection and measured on day 18 post-infection by Giemsa staining based microscopic analysis; format: organism-based; conditions: in vivo, 360 h, time 15 day
Plasmodium berghei [12] = assay: Antimalarial activity against Plasmodium berghei ANKA infected in ICR mouse assessed as increase in survival at 200 mg/kg, ip administered for 4 to 7 days after post-infection and measured on day 19 post-infection by Giemsa staining based microscopic analysis; format: functional, organism-based; conditions: time 16.0 day
[13] = AUC in ICR mouse at 40 mg/kg, ip; format: ADME, organism-based; set-up: dose 40 mg/kg, route ip; conditions: in vivo
[14] = Cmax in ICR mouse at 40 mg/kg, ip; format: ADME, organism-based; set-up: dose 40 mg/kg, route ip; conditions: in vivo
[15] = Half life in ICR mouse at 40 mg/kg, ip; format: ADME, organism-based; conditions: in vivo

| Compound | IC50 (Plasmodium falciparum [1]) | IC50 at 48 h [2] | other results |
| --- | --- | --- | --- |
| CCCCc1cc(=O)oc2cc(C)cc(OCC(=O)N3Cc4[nH]c5ccccc5c4C[C@@H]3C(=O)OC)c12 | 980 nM | > 3000 nM | – |
| CCCCc1cc(=O)oc2cc(C)cc(O[C@H](C)C(=O)N3Cc4[nH]c5ccccc5c4C[C@H]3C(=O)OC)c12 | 2 nM | > 3000 nM | Tmax [3]: 2 h; IC50 (Plasmodium falciparum [4]): 2.2 nM; IC50 (Plasmodium falciparum [5]): 2.6 nM; Activity (Plasmodium berghei [6]): Active; Activity (Plasmodium berghei [7]): Active; Activity [8]: Toxic; Activity (Plasmodium berghei [9]): Active; Activity (Plasmodium berghei [10]): Active; Activity [11]: Toxic; Activity (Plasmodium berghei [12]): Active; AUC [13]: 25600 ng·h/mL; Cmax [14]: 7120 ng/mL; half-life [15]: 2.14 h |
| CCCCc1cc(=O)oc2cc(C)cc(O[C@H](C)C(=O)N3Cc4[nH]c5ccccc5c4C[C@H]3C(C)=O)c12 | 5.6 nM | > 3000 nM | – |
| CCCCc1cc(=O)oc2cc(C)cc(OC(CCCC)C(=O)N3Cc4[nH]c5ccccc5c4C[C@H]3C(=O)OC)c12 (some centres undefined) | 10 nM | > 3000 nM | – |
| CCCCc1cc(=O)oc2cc(C)cc(OCC(=O)N3Cc4[nH]c5ccccc5c4C[C@H]3C(=O)OC)c12 | 20 nM | > 3000 nM | IC50 (Plasmodium falciparum [4]): 24 nM; IC50 (Plasmodium falciparum [5]): 20 nM |
| CCCc1cc(=O)oc2cc(C)cc(O[C@H](C)C(=O)N3Cc4[nH]c5ccccc5c4C[C@H]3C(=O)OC)c12 | 1.9 nM | > 3000 nM | IC50 (Plasmodium falciparum [4]): 2.1 nM; IC50 (Plasmodium falciparum [5]): 1.9 nM |
| CCCCc1cc(=O)oc2cc(C)cc(O[C@H](C)C(=O)N3Cc4[nH]c5ccccc5c4C[C@H]3C#N)c12 | 4.1 nM | > 3000 nM | – |
| CCc1cc(=O)oc2cc(C)cc(O[C@H](C)C(=O)N3Cc4[nH]c5ccccc5c4C[C@H]3C(=O)OC)c12 | 11 nM | > 3000 nM | – |
| COC(=O)[C@@H]1Cc2c([nH]c3ccccc23)CN1C(=O)[C@@H](C)Oc1cc(C)cc2oc(=O)cc(C)c12 | 40 nM | > 3000 nM | – |
| CCCCc1cc(=O)oc2cc(C)cc(O[C@H](C)C(=O)N3Cc4[nH]c5ccc(F)cc5c4C[C@H]3C(=O)OC)c12 | 5.5 nM | > 3000 nM | – |
| CCCCc1coc2cc(C)cc(O[C@H](C)C(=O)N3Cc4[nH]c5ccccc5c4C[C@H]3C#N)c12 | 110 nM | > 3000 nM | – |
| COC(=O)[C@@H]1Cc2c([nH]c3ccccc23)CN1C(=O)[C@@H](C)Oc1cc(C)cc2oc(=O)cc(CC3CC3)c12 | 3.5 nM | > 3000 nM | – |
| CCCCc1cc(=O)oc2cc(C)cc(OC(C)C(=O)N3Cc4[nH]c5ccccc5c4C[C@H]3C(=O)OC)c12 (some centres undefined) | 6.8 nM | > 3000 nM | – |
| CCCCc1cc(=O)oc2cc(C)cc(OCC(=O)N3Cc4[nH]c5ccccc5c4C[C@H]3C(=O)NC)c12 | > 3000 nM | > 3000 nM | – |
| CCCCc1cc(=O)oc2cc(C)cc(OC(C(=O)N3Cc4[nH]c5ccccc5c4C[C@H]3C(=O)OC)C(C)C)c12 (some centres undefined) | 6.4 nM | > 3000 nM | – |
| CCCCc1cc(=O)oc2cc(Br)cc(O[C@H](C)C(=O)N3Cc4[nH]c5ccccc5c4C[C@H]3C(=O)OC)c12 | 9.6 nM | > 3000 nM | – |
| CCCCc1cc(=O)oc2cc(N3CCOCC3)cc(O[C@H](C)C(=O)N3Cc4[nH]c5ccccc5c4C[C@H]3C(=O)OC)c12 | 210 nM | > 3000 nM | – |
| CCCCc1cc(=O)oc2cc(C)cc(O[C@H](C)C(=O)N3CCc4c([nH]c5ccccc45)C3)c12 | 72 nM | > 3000 nM | – |
| CCCCc1cc(=O)oc2cc(C)cc(O[C@H](C)C(=O)N3Cc4[nH]c5ccccc5c4C[C@H]3C(=O)OCC)c12 | 55 nM | > 3000 nM | – |
| CCCCc1coc2cc(C)cc(O[C@H](C)C(=O)N3Cc4[nH]c5ccccc5c4C[C@H]3C(=O)OC)c12 | 220 nM | > 3000 nM | – |
| CCCCc1cc(=O)oc2cc(C)cc(O[C@H](C)C(=O)N[C@@H](Cc3c[nH]c4ccccc34)C(=O)OC)c12 | 55 nM | > 3000 nM | – |
| CCCCc1cc(=O)oc2cc(C)cc(OC(CCC)C(=O)N3Cc4[nH]c5ccccc5c4C[C@H]3C(=O)OC)c12 (some centres undefined) | 5.9 nM | > 3000 nM | – |
| CCCCc1cc(=O)oc2cc(C)cc(OC(CC)C(=O)N3Cc4[nH]c5ccccc5c4C[C@H]3C(=O)OC)c12 (some centres undefined) | 7 nM | > 3000 nM | – |
| CCCCc1cc(=O)oc2cc(C)cc(O[C@@H](C)C(=O)N3Cc4[nH]c5ccccc5c4C[C@H]3C(=O)OC)c12 | 190 nM | > 3000 nM | – |
| CCCCC(=O)c1c(OC)cc(C)cc1O[C@H](C)C(=O)N1Cc2[nH]c3ccccc3c2C[C@H]1C(=O)OC | 2400 nM | > 3000 nM | – |
| CCCCc1cc(=O)oc2cccc(O[C@H](C)C(=O)N3Cc4[nH]c5ccccc5c4C[C@H]3C(=O)OC)c12 | 4.1 nM | > 3000 nM | – |
